Here are results for four compounds from US6862890B2, “Process for production of nanoparticles and microparticles by spray freezing into liquid” (Board of Regents, University of Texas System, priority 2001, dated 2005).

Format in all cases: physicochemical
Data set [1] can be described thus: Particle size of powders (time-of-flight, AERO-[…]). The procedure:
(§1) An aliquot of 0.1 g bovine insulin was dissolved in 20 ml HCl (pH=2), the solution was then titrated by 0.1 N NaOH to pH 7.4. The feed solution was then atomized using an ISCO pump by spray freezing into liquid nitrogen. The nozzle used was polyetheretherketone tubing with a diameter of 63.5 μm. The flow rate was 14 ml/min at 4000 psi. The frozen particles were collected and dried in a tray lyophilizer.
The span index is used to described the polydispersity in a given particle size distribution and is defined as (D90-D10)/D50, where D10, D50, and D90 are the respective particle size at 10, 50, 90 percent cumulative percent undersize.

The nature of data set [2]: BET specific surface area of powders.
Data set [3] in a line: Dissolution of drug from powders in dissolution media (FeSSIF). The note with it: 60 minutes. The text has this:
This media is used to simulate gastrointestinal conditions. FeSSIF is the dissolution media that the powders produced in the following examples are dispersed into to quantitate the amount of drug dissolved as a function of time.

Data set [4] can be described thus: Contact angle of powder compacts against purified water (wettability). The note with it: compacts of powders. The text has this: The two solutions were mixed and allowed to equilibrate to generate a water-soluble inclusion complex between danazol and HPβCD. The solution was then processed by SFL and freeze-dried in a tray lyophilizer. The solution was atomized directly into liquid nitrogen through an insulated polyetheretherketone (PEEK) nozzle with a 63.5 μm orifice at 5000 psi constant pressure supplied by an ISCO syringe pump. The atomized frozen powder was then collected by sieve filtration and freeze-dried. […] Measurement of the contact angle of compacts of the various samples investigated allowed for the determination of the wettability of the powders. […] A lower contact angle coincided with enhanced wettability of the powder in aqueous dissolution media. […] The two solutions were mixed to form a one-phase cosolvent solution. The solution was then processed by SFL and freeze-dried and fluidized in an atmospheric freeze-drying (ATMFD) chamber. […] The atomized frozen powder was then collected by sieve filtration and freeze-dried using a cryogenic atmospheric (ATMFD) fluidized bed apparatus. […] The microparticles are porous and have a high surface area. […] Measurement of the contact angle of compacts of the various samples investigated allowed for the determination of the wettability of the powders. […] A lower contact angle coincided with a better wettability of the powder in aqueous dissolution media. […]

Data set [5] can be described thus: Chemical stability of insulin: level of covalent insulin dimer. The note with it: for percentage of covalent insulin dimer: stored at −4° C. How it is done: as §1, with “lyophilizer. The resulting particles were highly porous. […] The SFL process decreased the level of covalent insulin dimer (Table 2). The mean particle size diameter as determined by time-of-flight measurement was 5.06 microns. SEM photographs reveal that the particle is an aggregate composed of small domains of insulin.” for “lyophilizer.”
(§2) The SFL insulin powder was prepared according to the procedure outlined in Example 1 with same formulation. The SFL insulin powder was stored at −4° C. The samples were taken out at 6, 12 and 24 weeks.

A short description of data set [6]: Chemical stability of insulin: level of A-21 desamido insulin. The note with it: stored at −4° C. The procedure:
as §1, with “lyophilizer. The resulting particles were highly porous. […] The SFL process decreased the level of covalent insulin dimer (Table 2). The mean particle size diameter as determined by time-of-flight measurement was 5.06 microns. SEM photographs reveal that the particle is an aggregate composed of small domains of insulin.” for “lyophilizer.”
as §2

As to `NC(=O)N1c2ccccc2C=Cc2ccccc21` [CBZ, carbamazepine], the “Span Index (D90-D10)/D50” value in data set [1] came out at 2.94. This compound also registered a D10 in data set [1] (time-of-flight, 10 percent cumulative undersize) of 15.56 μm. In data set [1] (time-of-flight, 50 percent cumulative undersize), the D50 is on record as 39.70 μm. The D90 in data set [1] (time-of-flight, 90 percent cumulative undersize) came to 132.33 μm.

The compound `C#C[C@]1(O)CC[C@H]2[C@@H]3CCC4=Cc5oncc5C[C@]4(C)[C@H]3CC[C@@]21C` [Danazol] showed a BET surface area in data set [2] of 0.52 m^2/g. For the same compound, the “amount of danazol dissolved” value in data set [3] is given as 21%.

With `C#C[C@]1(O)CC[C@H]2[C@@H]3CCC4=Cc5oncc5C[C@]4(C)[C@H]3CC[C@@]21C` [SFL Danazol Alone, danazol], the “Average Contact Angle ± S.D. against purified water” value in data set [4] was 64.3 ± 1.1 °; in data set [4] (listed as danazol alone) it was 64.3 °.

For bovine insulin [Bulk insulin], the “percentage of covalent insulin dimer” value in data set [5] (12 weeks) was found to be 1.18 percentage; in data set [5] (24 weeks) it was 1.15 percentage; in data set [5] (Initial) it was 0.5 percentage. Moreover, the “Covalent Insulin Dimer (percent)” value in data set [5] (Example 1, after SFL and lyophilization vs bulk) stood at 0.25%. In addition, the “Mean Particle Size” value in data set [1] (time-of-flight) came to 14.24 μm. For the same compound, the “percentage of A-21 desamido” value in data set [6] (12 weeks) is given as 2.61 percentage; in data set [6] (24 weeks), 2.72 percentage; in data set [6] (Initial), 2.46 percentage.
